Measured values taken from ChEMBL document CHEMBL1149376, “Sulfamoyl-4-oxoquinoline-3-carboxamides: novel potentiators of defective DeltaF508-cystic fibrosis transmembrane conductance regulator chloride channel gating” (Bioorg Med Chem Lett, 2006).

Target: Cystic fibrosis transmembrane conductance regulator (Homo sapiens) (UniProt P13569)
Experiment: Potentiation of deltaF508 mutated CFTR dependent iodide influx at 0.1 uM
Assay type: functional

Sequence of Cystic fibrosis transmembrane conductance regulator (Homo sapiens) (P13569 whole entry, looked up): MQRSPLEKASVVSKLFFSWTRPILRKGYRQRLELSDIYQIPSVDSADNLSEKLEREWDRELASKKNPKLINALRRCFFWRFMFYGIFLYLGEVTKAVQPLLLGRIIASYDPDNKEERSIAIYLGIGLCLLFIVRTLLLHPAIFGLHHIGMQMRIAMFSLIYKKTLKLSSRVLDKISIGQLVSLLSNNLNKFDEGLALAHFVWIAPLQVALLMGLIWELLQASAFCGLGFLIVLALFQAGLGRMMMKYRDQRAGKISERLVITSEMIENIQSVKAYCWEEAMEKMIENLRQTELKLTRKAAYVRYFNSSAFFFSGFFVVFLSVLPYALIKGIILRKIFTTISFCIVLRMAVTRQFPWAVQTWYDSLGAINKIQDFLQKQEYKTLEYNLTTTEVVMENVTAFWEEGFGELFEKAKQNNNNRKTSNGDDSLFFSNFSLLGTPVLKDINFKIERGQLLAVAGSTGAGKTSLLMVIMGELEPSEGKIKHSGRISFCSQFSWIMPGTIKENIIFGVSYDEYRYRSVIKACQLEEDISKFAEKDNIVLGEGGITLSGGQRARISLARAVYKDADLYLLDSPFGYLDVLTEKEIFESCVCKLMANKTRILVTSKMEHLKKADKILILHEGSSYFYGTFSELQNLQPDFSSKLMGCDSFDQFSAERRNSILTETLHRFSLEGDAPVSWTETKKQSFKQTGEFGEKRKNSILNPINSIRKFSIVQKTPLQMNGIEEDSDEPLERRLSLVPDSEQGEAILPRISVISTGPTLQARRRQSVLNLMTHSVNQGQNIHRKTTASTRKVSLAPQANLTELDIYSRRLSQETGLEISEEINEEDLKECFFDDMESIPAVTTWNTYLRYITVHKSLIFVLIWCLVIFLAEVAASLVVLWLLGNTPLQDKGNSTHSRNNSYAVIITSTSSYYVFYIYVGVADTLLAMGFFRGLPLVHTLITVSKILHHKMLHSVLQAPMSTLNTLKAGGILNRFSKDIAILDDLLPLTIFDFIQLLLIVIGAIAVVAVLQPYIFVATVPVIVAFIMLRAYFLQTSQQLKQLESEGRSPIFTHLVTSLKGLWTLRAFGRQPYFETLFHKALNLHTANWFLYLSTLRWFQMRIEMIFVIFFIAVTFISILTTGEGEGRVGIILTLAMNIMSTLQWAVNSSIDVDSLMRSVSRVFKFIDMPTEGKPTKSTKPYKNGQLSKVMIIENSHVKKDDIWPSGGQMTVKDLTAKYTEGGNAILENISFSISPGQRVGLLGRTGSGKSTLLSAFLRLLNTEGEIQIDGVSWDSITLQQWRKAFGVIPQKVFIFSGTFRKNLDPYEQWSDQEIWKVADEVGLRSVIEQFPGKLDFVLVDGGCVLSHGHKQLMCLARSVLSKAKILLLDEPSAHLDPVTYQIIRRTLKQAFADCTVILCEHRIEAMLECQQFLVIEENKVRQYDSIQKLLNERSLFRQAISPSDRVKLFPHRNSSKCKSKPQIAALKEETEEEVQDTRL

Activity: 50%
SMILES: CCN(c1ccccc1)S(=O)(=O)c1ccc2ncc(C(=O)NCc3ccccc3OC)c(O)c2c1
